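Step 1: Grow cells in 96-well plates. Step 2: Expose to compound for 48 hours at 5 concentrations. Step 3: Interpolate endpoints linearly; if unreached, use highest concentration. GI50: concentration for 50% inhibition of growth. TGI marks complete inhibition of growth.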
Assays:
Experiment in all cases: NCI tumour cell line growth inhibition, 48 h
SK-MEL-5 melanoma = test system: SK-MEL-5 melanoma
RXF 393 renal = test system: RXF 393 renal
HS 578T breast = test system: HS 578T breast
KM12 colon = test system: KM12 colon
LOX IMVI melanoma = test system: LOX IMVI melanoma
MDA-MB-435 = test system: MDA-MB-435
COLO 205 colon = test system: COLO 205 colon
TK-10 renal = test system: TK-10 renal
NCI/ADR-RES ovarian = test system: NCI/ADR-RES ovarian
U251 CNS = test system: U251 CNS

| Structure (SMILES) | GI50 (SK-MEL-5 melanoma) [µM] | TGI (SK-MEL-5 melanoma) [µM] | GI50 (RXF 393 renal) [µM] | TGI (RXF 393 renal) [µM] | GI50 (HS 578T breast) [µM] | TGI (HS 578T breast) [µM] | GI50 (KM12 colon) [µM] | TGI (KM12 colon) [µM] | GI50 (LOX IMVI melanoma) [µM] | TGI (LOX IMVI melanoma) [µM] | GI50 (MDA-MB-435) [µM] | TGI (MDA-MB-435) [µM] | GI50 (COLO 205 colon) [µM] | TGI (COLO 205 colon) [µM] | GI50 (TK-10 renal) [µM] | TGI (TK-10 renal) [µM] | GI50 (NCI/ADR-RES ovarian) [µM] | TGI (NCI/ADR-RES ovarian) [µM] | GI50 (U251 CNS) [µM] | TGI (U251 CNS) [µM] |
| --- | --- | --- | --- | --- | --- | --- | --- | --- | --- | --- | --- | --- | --- | --- | --- | --- | --- | --- | --- | --- |
| COc1ccc([C@H]2O[C@@H](CO)C[C@]2(O)c2ccc(OC)cc2)cc1 | > 100 | > 100 | 28.4 | > 100 | 39.5 | > 100 | > 100 | > 100 | > 100 | > 100 | > 100 | > 100 | > 100 | > 100 | > 100 | > 100 | > 100 | > 100 | > 100 | > 100 |
| O=C(/C=C/c1ccco1)Nc1ncc(Cc2ccc(F)cc2)s1 | 0.0476 |  | 0.122 | 0.593 | 0.124 | > 100 | 0.0486 | > 100 | 0.0918 | > 100 | 0.0219 | 0.0558 | 0.0352 | 0.137 | 10.2 | > 100 | 0.0445 | 4.02 | 0.0615 | > 100 |
| Cn1ccnc1C(=O)/C=C/c1ccc(C(=O)Nc2nc3ccccc3[nH]2)cc1 | 18.4 | > 25 | 4.51 | > 25 | 5.99 | > 25 | 1.12 | > 25 | 2.38 | > 25 | 2.87 | 19.8 |  |  | 13.3 | > 25 | 4.95 | > 25 | 0.916 | > 25 |
| COC(=O)CCC1=C(C)c2cc3[n-]c(cc4nc(cc5[n-]c(cc1n2)c(CCC(=O)OC)c5C)C=C4C)cc3C.[Cd+2] | 1.14 | 2.83 | 2.88 | 10.9 | 5.73 | > 100 | 3.46 | 13.6 | 13.1 | > 74.6 | 2.99 | 19.6 | 2.64 | 6.9 | 5.25 | 13.6 | 39.8 | > 100 | 2.82 | 9.98 |
| C=C(C)C1/C=C(/C(C)C)CC[C@]2(C)O[C@@H]2CC[C@H](C)CC1=O (stereo not given in full) | 55 | > 100 | 32 | > 100 | 31.7 | > 100 | 58.1 | > 100 | 23.3 | 57.6 | 39 | > 100 | 54.5 | > 100 | 66.6 | > 100 | 87.4 | > 100 | 54.7 | > 100 |
| O=c1[nH]c(-c2ccc(C(F)(F)F)cc2)nc2c1CSCC2 | 88.9 | > 100 | 19.6 | 65.8 | 45.8 | > 100 | > 100 | > 100 | > 71.1 | > 100 | > 100 | > 100 | > 100 | > 100 | 23.8 | 66.8 | 35.8 | > 100 | 17.9 | > 89.6 |
| c1ccc(-c2nc(N3CCNCC3)c3nc(-c4ccccc4)oc3n2)cc1 | 1.8 | 3.23 | 1.83 | 3.48 | 1.87 | 4.11 | 1.91 | 3.6 | 1.66 | 3.17 | 1.79 | 3.22 | 2.06 | 4.12 | 1.67 | 3.32 | 1.87 | 3.69 |  |  |
| CC(=O)OC1CCC2(C)C(=CC(C3C=C4CC(OC(C)=O)CCC4(C)C4=C3C3CC5OC6(CCC(C)CO6)C(C)C5C3(C)CC4)C3=C2CCC2(C)C3CC3OC4(CCC(C)CO4)C(C)C32)C1 (stereo not given) |  | 25.7 |  | 31.5 |  | 17 |  | 35.7 |  | 30.1 |  | 27.1 |  | 36.1 |  | 27.6 |  | 37.7 |  | 27.8 |
| FC(F)(F)c1ccc(-c2cnc(Br)nc2NC2CCCCCC2)cc1 | 29.1 | > 100 | 24.9 | > 100 | > 100 | > 100 | 52 | > 100 |  |  | > 100 | > 100 | 83.3 | > 100 | > 100 | > 100 | 88.9 | > 100 | 75 | > 100 |
| COc1ccc(/C=C\c2cc(OC)c(OC)c(OC)c2)c(NS(=O)(=O)c2ccc(C)cc2)c1O | 0.0359 | 0.195 |  |  | 0.0483 | > 100 | 0.0383 |  | 0.0509 | > 100 | 0.0208 | 0.0621 | 0.723 | 3.89 | 3.8 | > 100 | 0.169 | 14.7 | 0.0418 | > 100 |
| O=[As](O)(O)c1ccc(Cc2ccc([As](=O)(O)O)cc2)cc1 |  | 1.89 |  | 1.53 |  | 12.4 |  | 5.44 |  | 1.41 |  | 2.37 |  | 1.9 |  | 1.27 |  | 6.79 |  | 1.51 |
| Fc1ccc(-c2ncn(C3CCNCC3)c2-c2ccnc(Oc3cccc(F)c3)n2)cc1 | 4.04 | 8.73 | 5.32 | > 13.3 | > 12 | 24.8 | 13.6 | > 25 | 10.5 | > 25 | 6.57 | > 19.4 | 5.09 | 9.67 | 17.1 | > 25 | > 23.4 | > 25 | 9.74 | > 25 |
| COc1cc(C2C(C#N)=C(N)OC3=C2C(=O)c2ccccc2C3=O)cc(OC)c1OC (stereo not given) | 0.439 | 1.81 | 0.517 | 16.3 | 0.382 | 49.3 | 0.728 | > 100 | 0.629 | 14 | 0.239 | 0.523 | 3.55 | 19.7 | 10 | > 100 | 3.23 | 22.5 | 3.38 | 44 |
